Assay [1] deals with rat mesenchymal stem cells. Kind of assay: Adipogenesis Assay 1 (IBMX/dexamethasone priming, peptide replaces insulin; Oil Red O or BODIPY). Format: cell-based. The settings on record: for adipogenic activity, Oil Red O, fold change relative to negative control / Fold adipogenic induction vs. negative control / Specific activity (activity/1000 daltons): Assay 1; for adipogenic activity, Oil Red O, fold change relative to negative control: 0.5, 5, and 50 μg/ml over 3 weeks; for adipogenic activity of truncation fragments: truncation experiments, assays 1 and 2, FIGS. 7, 8, 9. How it is done: Reagents: (1) 3-isobutyl-1-methylxanthine (IBMX) solution: 0.5M in DMSO; (2) Insulin solution: 10 mg/mL recombinant human insulin; (3) Dexamethasone solution in 10 mM in ethanol; (4) Oil Red O (0.36% in 60% isopropanol) or BODIPY dye (BODIPY 493/503 (4,4-difluoro-1,3,5,7-tetramethyl-4-bora-3a,4a-diaza-s-indacene-8-propionic acid, succinimidyl ester) from Invitrogen at 4-10 μM).
Adipogenesis Initiation Media: mesenchymal stem cell expansion media/0.5 mM IBMX/1 μM dexamethasone. Mesenchymal stem cell expansion media is commercially available from Millipore. The IBMX Solution was diluted 1:1000 and the Dexamethasone Solution was diluted 1:10,000 in expansion media containing antibiotics and antimycotics. The prepared media was stored at 4° C.
Adipogenesis Progression Media for positive control: mesenchymal stem cell expansion media/10 μg/mL insulin. The Insulin Solution was diluted 1:1000 in the expansion media and stored at 4° C.
Experimental Adipogenesis Progression Media: mesenchymal stem cell expansion media/1-100 μg/mL RHAMM antagonist peptides.
Adipogenesis Maintenance Media: mesenchymal stem cell expansion media containing antibiotics and antimycotics.
Negative Control Media: DMEM/10% normal calf serum.
Pre-adipocyte stem cells including bone marrow mesenchymal stem cells and fibroblasts including reticular and papillary dermal fibroblasts were propagated using standard tissue culture methods. Cells were trypsinized to remove the cells from the substratum. The trypsin was neutralized and cells were counted using a hemocytometer. Cells were resuspended at 30,000 cells/mL in expansion media. […] of cell suspension was plated per well of 24-well plate, with several wells left empty for blank well staining.
Cells were incubated for 1-2 days until they reached confluency. Approximately 1.8 mL of media was removed from each well and replaced with 2 mL Adipogenesis Initiation Media. For negative control wells, expansion media only was used at this step and for subsequent media changes. For all media changes, media was replaced as gently as possible to avoid disturbing the monolayer.
Cells were incubated for 48 hours at 37° C., 5% CO2. 2 mL media was removed from each well, and replaced with 2 mL either positive control or experimental Adipogenesis Progression Media per well. Cells were again incubated for 48 hours at 37° C., 5% CO2. 2 mL of media was removed from each well and replaced with 2 mL Adipogenesis Maintenance Media per well. In addition, media was added to the empty wells reserved for blank well staining Cells were incubated for at least 48 hours at 37° C., 5% CO2. Media was replaced every 48-72 hours. Accumulation of intracellular lipid droplets continued for at least 5 days.
For quantification of Oil Red O staining, media was removed and cells were washed twice with PBS, using care to gently add the PBS. 0.5 mL Oil Red O solution was added per well of 24-well plate, including to the wells lacking cells, but containing media. Cells were incubated for 15 minutes at room temperature. The staining solution was then removed and wells were washed three times with 1 mL of phosphate buffered saline (PBS). In some experiments, following removal of the last wash, stained plates were scanned or photographed.
Adipogenesis was quantified using a spectrophotometer or fluorometer. 0.25 mL Dye Extraction Solution (isopropyl alcohol) was added per well, and the plate was set on an orbital shaker or platform rocker for 15-30 minutes. Extracted dye was transferred into a cuvette and absorbance was read in a spectrophotometer at visible range for oil red 0 or transferred to a 96-well plate and quantified in a plate reader.
For quantification of BODIPY dye uptake, media was removed and cells were washed twice with PBS, using care to gently add the PBS. Cells were then fixed in 3% paraformaldehyde, washed in PBS then incubated for 1 hour in the dark with the BODIPY solution, prepared in PBS. […]

Assay [2] has as its system rat mesenchymal stem cells. Kind of assay: Adipogenesis Assay 2 (dexamethasone/insulin/indomethacin induction, then peptide; Oil Red O or BODIPY). Format: cell-based. The settings on record: for adipogenic activity, Oil Red O, fold change relative to negative control / Fold adipogenic induction vs. negative control / Specific activity (activity/1000 daltons): Assay 2; for adipogenic activity, Oil Red O, fold change relative to negative control: 0.5, 5, and 50 μg/ml over 3 weeks; for adipogenic activity of pentamers / adipogenic activity relative to KSEVSK hexamer: FIG. 35, groups labelled A2-, doses 1, 5, 25 μg, absorbance at 520 nm. The method, then:
Reagents: The dexamethasone, insulin, and Oil Red O solutions were the same as described above for assay 1. Indomethacin Solution contained 10 mM indomethacin in methanol. The BODIPY 493/503 dye was used at a concentration of 4 μM.
Adipogenesis Maintenance Media was prepared as described above.
Adipogenesis Induction Media: To prepare 501 mL of Adipogenesis Induction Media, 50 μL of the 10 mM stock solution of dexamethasone, 500 μL of the 10 mg/ml stock solution of insulin, 5 ml of a 10 mM stock solution of indomethacin, and 5 mL of a 100× stock solution of penicillin and streptomycin were added to 490 mL of mesenchymal stem cell expansion media.
Pre-adipocyte stem cells, bone marrow mesenchymal stem cells and fibroblasts such as dermal reticular and papillary fibroblasts were propagated using standard tissue culture methods. Cells were trypsinized to remove cells from the substratum, the trypsin was neutralized, and cells were counted using a hemocytometer. Cells were resuspended at 60,000 cells/ml in low glucose DMEM containing 10% calf serum. 1 mL of cell suspension per well was plated in a 24-well plate, with several wells left empty for blank well staining.
Cells were incubated overnight and had reached confluency at this point. Approximately 1.8 ml of media was removed from each well and replaced with 2 ml Adipogenesis Induction Media. For negative control wells, expansion medium only was used at this step and for subsequent media changes. For all media changes, media was replaced as gently as possible to avoid disturbing the monolayer.
Media was removed and replaced with 2 ml of maintenance medium containing either RHAMM antagonist peptides (experimental group) or insulin (concentration as in the induction medium used as positive control). […]
Media was removed and BODIPY or Oil Red O staining was performed as described above for assay 1.
As described above in Example 1, two different adipogenesis assays were used herein to assess the adipogenic effects of the peptides in rat mesenchymal stem cells. Assay 1 is an assay that is typically used to promote transdifferentiation of fibroblasts into adipocytes, whereas Assay 2 is typically used to promote differentiation of multi-potential mesenchymal progenitor cells into adipocytes. Immortalized rat bone marrow mesenchymal stem cells were used for both assays. These cells contain cells of different lineages, including fibroblasts, pre-adipocytes, pre-chondrocytes and pre-osteoblasts. Thus, Assay 1 was used to promote transdifferentiation of the fibroblast lineages into adipocytes and Assay 2 was used to promote differentiation of the pre-adipocytes into adipocytes.
As described in Example 1 above, the priming stimulus for Assay 1 includes IBMX (3-isobutyl-1-methylxanthine) and dexamethasone, and then insulin as the final adipogenic stimulus. The priming stimulus for assay 2 includes IBMX, dexamethasone and indomethacin, and then insulin as the final adipogenic stimulus.

The subject of assay [3] is 2D rat Pre-adipocytes (rat mesenchymal stem cells). Nature of the assay: Adipogenic potential ranking in 2D tissue culture, rat pre-adipocytes. Type of assay: cell-based. The conditions noted are these: ranked on a scale of 0-5 with 5 representing the highest possible score. How it is done: (§1) Examples of the adipogenic effects of RHAMM antagonists (peptide B (SEQ ID NO: 2), peptide P15-1 (SEQ ID NO. 1), and the antibody to peptide B) are summarized in Table 1. Peptide P15-1, peptide B, and a RHAMM antibody were assayed for their effects on pre-adipocyte stem cells in culture and when injected into the dermis of aged rats. Reagents were ranked on a scale of 0-5 with 5 representing the highest possible score and a completely filled in Harvey ball. “2D” refers to two-dimensional tissue culture.

The next assay deals with Rat skin. Nature of the assay: Rat dermal skin model of adipogenesis (injection into dermis). The settings on record: injected into the dermis of aged rats; scale of 0-5, 5 highest. Type of assay: in vivo. The method, then:
as §1
In FIGS. 5A and 5B, data are shown as a ratio of the area (“surface area”) of fat pads expressed as a ratio of experimental/control values.
The 6-mer (KSEVSK; SEQ ID NO: 3) was tested for adipogenic effect in rat skin in vivo. The results of this testing are shown in the photographs in FIG. 10.

The next assay has as its system 2D human Pre-adipocytes. Kind of assay: Adipogenic potential ranking in 2D tissue culture, human pre-adipocytes. Type of assay: cell-based. The conditions noted are these: scale of 0-5, 5 highest. The method, then: as §1
Assay [4] concerns mesenchymal stem cells or papillary fibroblasts. Kind of assay: Adipogenesis by RHAMM antagonists in tissue culture and in vivo (summary statements). The source says:
We hypothesized that the fragment and the antibody were blocking RHAMM function by competitive inhibition and by direct binding/blocking of RHAMM, respectively. Using truncation analyses, the size of the peptide was further reduced to 32 amino acids ([…] (SEQ ID NO: 92)) and it was shown that adipogenic activity is localized to a 15 amino acid peptide (KLKDENSQLKSEVSK (SEQ ID NO: 2); “peptide B” or “B-1” herein) shown in FIG. 2. This peptide was chemically synthesized to use as a competitive blocker, and antibodies were prepared against this sequence tagged with keyhold lymphocyte hemacyanin (KLH) to directly bind/block RHAMM function.
The RHAMM sequence that contains adipogenic activity also contains the hyaluronan binding region of this protein.
All of these reagents can replace insulin in their ability to promote adipogenesis in mesenchymal stem cells or papillary fibroblasts.

A further assay deals with mesenchymal stem cell. Kind of assay: Adipogenesis with commercially available mesenchymal stem cell kit. Type of assay: cell-based. How it is done: Ablation of RHAMM expression promotes adipogenesis (Tolg et al., 2006, J Cell Biol). A RHAMM carboxy-terminal sequence [^AA681LDAFEAEKQA LLNEHGATQEQLNKIRDSYAQLLGHQNLKQKIKHVVKLKDENSQLKSEVSKLRSQLVKRKQNELRLQGELDKALGIRHFDPSKAFCHASKENFTPLKEGNPNCC^aa794 (SEQ ID NO: 91)] was produced as a recombinant protein, and antibodies were prepared to this protein fragment.

STTMSR: the “adipogenic activity, Oil Red O, fold change relative to negative control” value in assay [1] and in assay [2] was “weakly adipogenic” in each case.

As for “KLKDENS [fragment corresponding to one half of peptide B]”, the “adipogenic activity of truncation fragments” value in assay [1] is given as “Only the SQLKSEVSK (SEQ ID NO: 44) fragment was found to be adipogenic”.

As to SQLKSEVSK, in assay [1], the “Fold adipogenic induction vs. negative control” value is given as 2.4, the “Specific activity (activity/1000 daltons)” value (“Specific activity” for short) is recorded as 2.11 activity/1000 daltons and the “adipogenic activity of truncation fragments” value is listed as “found to be adipogenic”. Further, in assay [2], the “Fold adipogenic induction vs. negative control” value came to 3.0 and the “Specific activity” value is given as 2.64 activity/1000 daltons.

In the case of LSELEK, in assay [2], the “adipogenic activity, Oil Red O, fold change relative to negative control” value was “increased adipogenesis”.

SEVSK: in assay [2], the “adipogenic activity of pentamers” value is reported as “low level of adipogenic activity” and the “adipogenic activity relative to KSEVSK hexamer” value is given as “much less active than the KSEVSK (SEQ ID NO: 3) hexamer”.

In the case of “STMMSRSHKTRSHHV [peptide P15-1, reference compound]”, the “adipogenic potential, 2D rat Pre-adipocytes (rat mesenchymal stem cells)” value in assay [3] is 2. Moreover, the “adipogenic potential, In vivo Rat skin” value in the assay with Rat skin was 2. For the same molecule, the “adipogenic potential, 2D human Pre-adipocytes” value in the assay on 2D human Pre-adipocytes is 2. Further, the “adipogenesis in tissue culture and in vivo” value in assay [4] is “promotes adipogenesis in tissue culture and in vivo”.

In the case of STMMSRSHK, in assay [1], the “adipogenic activity of truncation fragments” value is given as “has adipogenic activity”.

Turning to KSEVS, in assay [2], the “adipogenic activity of pentamers” value was “low level of adipogenic activity” and the “adipogenic activity relative to KSEVSK hexamer” value was “much less active than the KSEVSK (SEQ ID NO: 3) hexamer”.

Take STRMSR: the “adipogenic activity, Oil Red O, fold change relative to negative control” value in assay [1] and in assay [2] was “weakly adipogenic” in each case.

On to SIMMSR, for which the “adipogenic activity, Oil Red O, fold change relative to negative control” value in assay [1] and in assay [2] was “weakly adipogenic” throughout.

With STMMRSH, the “adipogenic activity, Oil Red O, fold change relative to negative control” value in assay [1] is given as “significantly greater adipogenic activity than the negative control”; in assay [2] it was “active at the 0.5 μg/ml concentration”.

As for ASEVSA, the “adipogenic activity, Oil Red O, fold change relative to negative control” value in assay [1] was “significantly increased adipogenic activity as compared to both the negative control and the KSEVSK 6-mer”.

Take LKSEVSK: in assay [1], the “Fold adipogenic induction vs. negative control” value is 2, the “Specific activity” value came to 2.26 activity/1000 daltons and the “adipogenic activity of truncation fragments” value is given as “also found to be adipogenic”. In assay [2], the “Fold adipogenic induction vs. negative control” value came to 3 and the “Specific activity” value is listed as 3.39 activity/1000 daltons.

B1: SEQ ID NO: 91: RHAMM carboxy-terminal sequence (aa681-aa794) produced as a recombinant protein (protein)
chain: LDAFEAEKQALLNEHGATQEQLNKIRDSYAQLLGHQNLKQKIKHVVKLKDENSQLKSEVSKLRSQLVKRKQNELRLQGELDKALGIRHFDPSKAFCHASKENFTPLKEGNPNCC
As for B1, in the assay on mesenchymal stem cell, the adipogenesis result is given as “promoted adipogenesis”.

(Values after patent US10494402B2, “Peptides that stimulate subcutaneous adipogenesis” (The Regents of the University of California, priority 2012, dated 2019).)
